Reference: ChEMBL document CHEMBL6074689 (Eur J Med Chem, 2025)
pIC50: −log10 of the molar value. The source made the active and inactive calls. No cut-off for these calls is given here.

Columns and labels:
[1] = Metal chelating activity assessed as compound-Fe2+ complex formation by measuring increase in absorption intensity at 300 uM in presence of by UV-vis spectrometry
[2] = test system: Drosophila melanogaster; assay: Anti-alzheimer activity in ey-GAL4 driven UAS-amyloid beta (1 to 42) induced Drosophila melanogaster Oregon R-positive assessed as increase in superoxide level at 10 to 20 uM by fluorescence based analysis; format: functional, organism-based; details: dose 10-20 µM
[3] = Toxicity in Drosophila melanogaster Oregon R-positive assessed as reduction in eclosed flies at 40 uM measured for 15 days relative to control; design: scale not given: the % may be the effect or the level left; details: 360 h, time 15 day
[4] = Acute toxicity in Swiss albino mouse assessed as body weight gain at 175 mg/kg, po administered for 14 days; format: organism-based; details: in vivo, 336 h, time 14 day
[5] = test system: Mus musculus; assay: Neuroprotective activity against scopolamine-induced Swiss albino mouse model assessed as effect on GAP43 mRNA level at 0.3 to 0.5 mg/kg, po measured after 6 days by RT-PCR analysis; format: functional, organism-based; details: dose 0.3-0.5 mg/kg, time 6.0 day
[6] = test system: Drosophila melanogaster; assay: Anti-alzheimer activity in ey-GAL4 driven UAS-amyloid beta (1 to 42) induced Drosophila melanogaster Oregon R-positive assessed as severe eye phenotype at 100 uM by Stereo zoom microscopic imaging analysis relative to control; format: functional
[7] = test system: Mus musculus; assay: Antioxidant activity against scopolamine-induced Swiss albino mouse model assessed as increase in MDA level at 0.3 to 0.5 mg/kg, po by absorbance based analysis; format: functional, organism-based; details: dose 0.3-0.5 mg/kg
[8] = biological target: T1, Acetylcholinesterase (Homo sapiens, UniProt P22303); assay: Inhibition of human recombinant AChE expressed in HEK293 cells using acetylthiocholine iodide as substrate preincubated with compound for 30 mins followed by substrate addition and measured after 30 mins by DTNB reagent based Ellman's method
[9] = test system: PC-12; assay: Induction of apoptosis in rat PC-12 cells assessed as viable cells at 20 uM incubated for 24 hrs by Annexin V/PI staining based flow cytometry analysis (reference value: 82.8%); format: functional; details: read-out: Activity
[10] = test system: Mus musculus; assay: Antialzheimer activity in scopolamine-induced Swiss albino mouse model assessed as reduction in BChE level at 0.3 to 0.5 mg/kg, po preincubated with compound for 30 mins followed by scopolamine induction and measured after 30 mins; format: functional, organism-based; details: dose 0.3-0.5 mg/kg, time 1.0 hrs
[11] = test system: Mus musculus; assay: (§1) Antialzheimer activity in scopolamine-induced Swiss albino mouse model assessed as decrease in escape latency at 0.3 to 0.5 mg/kg, po preincubated with compound for 30 mins followed by scopolamine induction and measured after 5 days by Morris water maze test; format: functional, organism-based; details: dose 0.3-0.5 mg/kg, time 7230.0 min
[12] = biological target: T1, Acetylcholinesterase; assay: Displacement of propidium iodide from human AChE PAS assessed as reduction in fluorescence intensity at 1 uM incubated for 6 hrs by fluorescence based analysis relative to control; design: scale not given: the % may be the effect or the level left
[13] = biological target: Cholinesterase (Equus caballus, UniProt P81908); assay: Inhibition of equine serum BChE using acetylthiocholine iodide as substrate preincubated with compound for 30 mins followed by substrate addition and measured after 30 mins by DTNB reagent based Ellman's method
[14] = test system: Drosophila melanogaster; assay: Inhibition of oxidative stress in y-GAL4 driven UAS-amyloid beta (1 to 42) induced Drosophila melanogaster Oregon R-positive assessed as reduction in ROS level at 10 to 20 uM incubated for 30 mins by H2DCFDA staining based analysis; format: functional, organism-based; details: dose 10-20 µM
[15] = test system: Drosophila melanogaster; assay: Anti-alzheimer activity in ey-GAL4 driven UAS-amyloid beta (1 to 42) induced Drosophila melanogaster Oregon R-positive assessed as rescued eye phenotype at 10 uM by Stereo zoom microscopic imaging analysis relative to control; format: functional
[16] = test system: PC-12; assay: Neuroprotective activity against H2O2-induced oxidative stress in rat PC-12 cells assessed as cell viability at 1 to 20 uM preincubated with compound for 24 hrs and followed by H2O2 induction and measured after 24 hrs by MTT assay; format: functional, cell-based; details: dose 1-20 µM, time 48.0 hrs
[17] = test system: Mus musculus; assay: Neuroprotective activity against scopolamine-induced Swiss albino mouse model assessed as increase in NR4A2 mRNA level at 0.3 to 0.5 mg/kg, po measured after 6 days by RT-PCR analysis; format: functional, organism-based; details: dose 0.3-0.5 mg/kg, time 6.0 day
[18] = test system: Mus musculus; assay: Neuroprotective activity against scopolamine-induced Swiss albino mouse model assessed as upregulation of MMP9 mRNA level at 0.3 to 0.5 mg/kg, po measured after 6 days by RT-PCR analysis; format: functional, organism-based; details: dose 0.3-0.5 mg/kg, time 6.0 day
[19] = test system: Drosophila melanogaster; assay: Anti-alzheimer activity in ey-GAL4 driven UAS-amyloid beta (1 to 42) induced Drosophila melanogaster Oregon R-positive assessed as mild eye phenotype at 10 uM by Stereo zoom microscopic imaging analysis relative to control; format: functional
[20] = test system: Mus musculus; assay: Antialzheimer activity in scopolamine-induced Swiss albino mouse model assessed as reduction in AChE level at 0.3 to 0.5 mg/kg, po preincubated with compound for 30 mins followed by scopolamine induction and measured after 30 mins; format: functional, organism-based; details: dose 0.3-0.5 mg/kg, time 1.0 hrs
[21] = test system: PC-12; assay: Induction of apoptosis in rat PC-12 cells assessed as viable cells at 5 uM incubated for 24 hrs by Annexin V/PI staining based flow cytometry analysis (reference value: 82.8%); format: functional; details: read-out: Activity
[22] = test system: Mus musculus; assay: as §1, with “improvement” for “decrease”, “memory retention by measuring time spent in platform quadrant” for “escape latency”; format: functional, organism-based; details: dose 0.3-0.5 mg/kg, time 7230.0 min
[23] = biological target: T1, Acetylcholinesterase; assay: Reversible binding affinity to human AChE using acetylthiocholine iodide as substrate assessed as binding constant preincubated for 40 mins by DTNB reagent based Ellman's method
[24] = test system: Mus musculus; assay: Neuroprotective activity against scopolamine-induced Swiss albino mouse model assessed as increase in C-FOS mRNA level at 0.3 to 0.5 mg/kg, po measured after 6 days by RT-PCR analysis; format: functional, organism-based; details: dose 0.3-0.5 mg/kg, time 6.0 day
[25] = test system: Mus musculus; assay: Antioxidant activity against scopolamine-induced Swiss albino mouse model assessed as increase in catalase level in brain at 0.3 to 0.5 mg/kg, po by absorbance based analysis; format: functional, organism-based; details: dose 0.3-0.5 mg/kg
[26] = test system: PC-12; assay: Cytotoxicity against rat PC-12 cells assessed as cell viability upto 20 uM measured for 24 hrs by MTT assay; format: toxicity, cell-based; details: pc-12, 24 h
[27] = biological target: Cholinesterase (Equus caballus) (UniProt P81908); assay: Reversible binding affinity to equine serum BChE using acetylthiocholine iodide as substrate assessed as binding constant preincubated for 40 mins by DTNB reagent based Ellman's method
[28] = test system: Drosophila melanogaster; assay: Anti-alzheimer activity in ey-GAL4 driven UAS-amyloid beta (1 to 42) induced Drosophila melanogaster Oregon R-positive assessed as rescued eye phenotype at 10 to 20 uM by Stereo zoom microscopic imaging analysis relative to control; format: functional; details: dose 10-20 µM
[29] = biological target: Cholinesterase (Equus caballus) (UniProt P81908); assay: Reversible binding affinity to equine serum BChE using acetylthiocholine iodide as substrate assessed as equilibrium binding constant preincubated for 40 mins by DTNB reagent based Ellman's method
[30] = Toxicity in Drosophila melanogaster Oregon R-positive assessed as reduction in eclosed flies at 20 uM measured for 15 days relative to control; design: scale not given: the % may be the effect or the level left; details: 360 h, time 15 day
[31] = test system: Drosophila melanogaster; assay: Anti-alzheimer activity in ey-GAL4 driven UAS-amyloid beta (1 to 42) induced Drosophila melanogaster Oregon R-positive assessed as severe eye phenotype at 10 to 20 uM by Stereo zoom microscopic imaging analysis relative to control; format: functional; details: dose 10-20 µM
[32] = test system: Drosophila melanogaster; assay: Anti-alzheimer activity in ey-GAL4 driven UAS-amyloid beta (1 to 42) induced Drosophila melanogaster Oregon R-positive assessed as severe eye phenotype at 10 uM by Stereo zoom microscopic imaging analysis relative to control; format: functional

T1 sequence (P22303 whole entry): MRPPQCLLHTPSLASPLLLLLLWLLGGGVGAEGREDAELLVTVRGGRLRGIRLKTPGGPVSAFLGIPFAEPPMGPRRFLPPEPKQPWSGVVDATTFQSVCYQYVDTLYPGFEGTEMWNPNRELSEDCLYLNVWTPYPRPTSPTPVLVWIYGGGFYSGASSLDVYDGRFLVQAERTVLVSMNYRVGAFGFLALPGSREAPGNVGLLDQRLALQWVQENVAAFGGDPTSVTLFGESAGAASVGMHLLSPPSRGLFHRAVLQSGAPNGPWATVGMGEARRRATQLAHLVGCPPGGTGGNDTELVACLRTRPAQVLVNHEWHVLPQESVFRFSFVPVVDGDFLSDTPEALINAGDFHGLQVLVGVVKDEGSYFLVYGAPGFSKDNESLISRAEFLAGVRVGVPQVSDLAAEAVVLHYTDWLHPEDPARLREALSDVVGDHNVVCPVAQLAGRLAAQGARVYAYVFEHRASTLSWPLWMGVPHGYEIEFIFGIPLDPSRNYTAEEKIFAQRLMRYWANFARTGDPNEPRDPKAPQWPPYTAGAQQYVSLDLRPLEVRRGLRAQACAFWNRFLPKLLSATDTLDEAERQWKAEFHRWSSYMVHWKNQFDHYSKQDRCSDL
Sequence of Cholinesterase (Equus caballus) (P81908 whole entry, the tested form may be a part): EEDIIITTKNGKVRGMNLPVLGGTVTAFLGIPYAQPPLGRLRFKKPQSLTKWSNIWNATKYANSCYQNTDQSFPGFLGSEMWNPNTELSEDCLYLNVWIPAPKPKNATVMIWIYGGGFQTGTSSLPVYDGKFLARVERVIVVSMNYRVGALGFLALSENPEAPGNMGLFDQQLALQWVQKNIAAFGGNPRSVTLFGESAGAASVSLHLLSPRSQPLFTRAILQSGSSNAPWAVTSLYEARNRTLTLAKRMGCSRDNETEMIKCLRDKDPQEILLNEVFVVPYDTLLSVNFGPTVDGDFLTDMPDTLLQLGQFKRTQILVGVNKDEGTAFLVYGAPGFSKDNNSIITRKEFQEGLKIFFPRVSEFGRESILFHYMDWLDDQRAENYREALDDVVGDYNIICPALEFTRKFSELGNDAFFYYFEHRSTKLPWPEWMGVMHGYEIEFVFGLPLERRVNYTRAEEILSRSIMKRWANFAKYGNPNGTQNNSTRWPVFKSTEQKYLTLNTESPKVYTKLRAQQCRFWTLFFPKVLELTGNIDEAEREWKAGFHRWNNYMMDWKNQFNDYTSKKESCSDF
Sequence of Cholinesterase (P81908 whole entry, the tested form may be a part): as above

SMILES: C[C@@H](c1cccc(OC(=O)NCCc2c[nH]c3ccc(Cl)cc23)c1)N(C)C
- Activity [1]: inactive
- Activity [2]: Active
- Activity [3]: 20%
- Activity [4]: Non-toxic
- Activity [5]: Active
- Activity [6]: 26%
- Activity [7]: Active
- pIC50 [8]: 8.10
- viability at 20 µM [9]: 81.5%
- Activity [10]: Active
- Activity [11]: Active
- Activity [12]: 20.4%
- pIC50 [13]: 9.10
- Activity [14]: Active
- Activity [15]: 43%
- Activity [16]: Active
- Activity [17]: Active
- Activity [18]: Active
- Activity [19]: 36%
- Activity [20]: Active
- viability at 5 µM [21]: 81.1%
- Activity [22]: Active
- K [23]: 0.041 min⁻¹
- Activity [24]: Active
- Activity [25]: Active
- Activity [26]: Non-toxic
- K [27]: 0.035 min⁻¹
- Activity [28]: 36%
- Kb [29]: 0.13 nM
- Activity [30]: 103%
- Activity [31]: 20%
- Activity [32]: 20%
